Source: patent US8686150B2 (Sanofi, priority 2011, dated 2014)

Biological target: T1, human full-length recombinant PKC βII (Homo sapiens, UniProt P05771)
T1 construct: Active human full-length recombinant PKC βII; purchased Invitrogen GmbH, Darmstadt, Germany
Experiment: Determination of PKC βII inhibition (Caliper mobility-shift kinase assay, Fluorescein-RFARKGSLRQKNV peptide substrate)
Assay type: biochemical
Conditions: example compounds at a final concentration of 1.14 μM (±0.15 μM)
Summary of the method: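 Full-length PKC βII (30 ng/ml in pre-dilution) with PS/DAG/Ca2+ activators, pH 7.4; fluorescein peptide and ATP at 3 μM and 120 μM before mixing. Reaction ran 60 min at 32 °C, was EDTA-stopped, and was read by mobility shift. % inhibition came from product/(substrate+product) peak heights, tested at 1.14 μM final.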

T1 sequence (P05771 1-673 isoform P05771-2): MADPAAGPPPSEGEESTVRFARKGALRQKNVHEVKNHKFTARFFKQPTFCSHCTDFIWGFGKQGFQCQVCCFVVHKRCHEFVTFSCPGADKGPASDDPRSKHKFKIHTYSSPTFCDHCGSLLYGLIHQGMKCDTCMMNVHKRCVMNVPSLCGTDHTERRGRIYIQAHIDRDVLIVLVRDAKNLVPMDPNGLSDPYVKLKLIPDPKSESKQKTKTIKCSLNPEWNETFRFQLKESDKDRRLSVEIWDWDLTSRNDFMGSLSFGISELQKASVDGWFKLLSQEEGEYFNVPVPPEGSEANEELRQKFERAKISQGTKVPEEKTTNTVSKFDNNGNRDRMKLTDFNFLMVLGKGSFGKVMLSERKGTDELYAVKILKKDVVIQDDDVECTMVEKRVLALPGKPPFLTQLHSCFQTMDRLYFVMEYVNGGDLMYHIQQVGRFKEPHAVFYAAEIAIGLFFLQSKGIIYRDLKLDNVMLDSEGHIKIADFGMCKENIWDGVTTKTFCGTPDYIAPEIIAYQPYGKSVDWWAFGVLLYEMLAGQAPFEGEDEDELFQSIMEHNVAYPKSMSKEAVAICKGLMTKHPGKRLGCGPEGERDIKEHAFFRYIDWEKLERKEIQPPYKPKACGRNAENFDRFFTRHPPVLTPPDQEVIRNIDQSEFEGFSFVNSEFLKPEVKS

Row | Structure (SMILES) | inhibition at 1.14 µM [%]
1 | COc1ccc(C(CNC(=O)c2cc(-c3ccc(O)cc3)nc3[nH]nc(C)c23)N(C)C)cc1 (centres unmarked) [Example 376, 6-(4-Hydroxy-phenyl)-3-methyl-1H-pyrazolo[3,4-b]pyridine-4-carboxylic acid [2-dimethylamino-2-(4-methoxy-phenyl)-ethyl]-amide] | 64
2 | Cc1n[nH]c2nc(-c3ccc(O)cc3)cc(C(=O)NC(CN3CCCC3)c3ccccc3)c12 (centres unmarked) [Example 377, 6-(4-Hydroxy-phenyl)-3-methyl-1H-pyrazolo[3,4-b]pyridine-4-carboxylic acid (1-phenyl-2-pyrrolidin-1-yl-ethyl)-amide] | 69
3 | Cc1n[nH]c2nc(-c3ccc(O)cc3)cc(C(=O)N3CCNCC3c3ccc(Cl)cc3)c12 (centres unmarked) [Example 378, [2-(4-Chloro-phenyl)-piperazin-1-yl]-[6-(4-hydroxy-phenyl)-3-methyl-1H-pyrazolo[3,4-b]pyridin-4-yl]-methanone] | 87
4 | Cc1n[nH]c2nc(-c3ccc(O)cc3)cc(C(=O)N3CCN(C(=O)N4CCCC4)CC3)c12 [Example 379, {4-[6-(4-Hydroxy-phenyl)-3-methyl-1H-pyrazolo[3,4-b]pyridine-4-carbonyl]-piperazin-1-yl}-pyrrolidin-1-yl-methanone] | 86
5 | Cc1n[nH]c2nc(-c3ccc(O)cc3)cc(C(=O)N3CCN(C(=O)c4ccoc4)CC3)c12 [Example 380, [4-(Furan-3-carbonyl)-piperazin-1-yl]-[6-(4-hydroxy-phenyl)-3-methyl-1H-pyrazolo[3,4-b]pyridin-4-yl]-methanone] | 83
6 | COc1ccccc1C(=O)N1CCN(C(=O)c2cc(-c3ccc(O)cc3)nc3[nH]nc(C)c23)CC1 [Example 381, [6-(4-Hydroxy-phenyl)-3-methyl-1H-pyrazolo[3,4-b]pyridin-4-yl]-[4-(2-methoxy-benzoyl)-piperazin-1-yl]-methanone] | 37
7 | Cc1n[nH]c2nc(-c3ccc(O)cc3)cc(C(=O)NC3CCN(CCc4ccccc4)CC3)c12 [Example 382, 6-(4-Hydroxy-phenyl)-3-methyl-1H-pyrazolo[3,4-b]pyridine-4-carboxylic acid (1-phenethyl-piperidin-4-yl)-amide] | 67
8 | Cc1n[nH]c2nc(-c3ccc(O)cc3)cc(C(=O)N3CCN4CCC[C@H]4C3)c12 [Example 383, (S)-Hexahydro-pyrrolo[1,2-a]pyrazin-2-yl-[6-(4-hydroxy-phenyl)-3-methyl-1H-pyrazolo[3,4-b]pyridin-4-yl]-methanone] | 66
9 | Cc1n[nH]c2nc(-c3ccc(O)cc3)cc(C(=O)NC3CCN(Cc4ccccc4)C3)c12 (centres unmarked) [Example 384, 6-(4-Hydroxy-phenyl)-3-methyl-1H-pyrazolo[3,4-b]pyridine-4-carboxylic acid (1-benzyl-pyrrolidin-3-yl)-amide] | 67
10 | Cc1n[nH]c2nc(-c3ccc(O)cc3)cc(C(=O)N3CCC(Nc4ccccc4)C3)c12 (centres unmarked) [Example 385, [6-(4-Hydroxy-phenyl)-3-methyl-1H-pyrazolo[3,4-b]pyridin-4-yl]-(3-phenylamino-pyrrolidin-1-yl)-methanone] | 24
11 | Cc1n[nH]c2nc(-c3ccc(O)cc3)cc(C(=O)N3CC4CN(Cc5ccccc5)CC4C3)c12 (centres unmarked) [Example 386, (5-Benzyl-hexahydro-pyrrolo[3,4-c]pyrrol-2-yl)-[6-(4-hydroxy-phenyl)-3-methyl-1H-pyrazolo[3,4-b]pyridin-4-yl]-methanone] | 51
12 | Cc1n[nH]c2nc(-c3ccc(O)cc3)cc(C(=O)N3CCCN(C(=O)c4ccncc4)CC3)c12 [Example 387, [6-(4-Hydroxy-phenyl)-3-methyl-1H-pyrazolo[3,4-b]pyridin-4-yl]-[4-(pyridine-4-carbonyl)-[1,4]diazepan-1-yl]-methanone] | 39
13 | Cc1n[nH]c2nc(-c3ccc(O)cc3)cc(C(=O)NCCN3CCC(c4ccccc4)C3)c12 (centres unmarked) [Example 388, 6-(4-Hydroxy-phenyl)-3-methyl-1H-pyrazolo[3,4-b]pyridine-4-carboxylic acid [2-(3-phenyl-pyrrolidin-1-yl)-ethyl]-amide] | 54
14 | Cc1n[nH]c2nc(-c3ccc(O)cc3)cc(C(=O)NCC(C)N3CCCC3)c12 (centres unmarked) [Example 389, 6-(4-Hydroxy-phenyl)-3-methyl-1H-pyrazolo[3,4-b]pyridine-4-carboxylic acid (2-pyrrolidin-1-yl-propyl)-amide] | 65
15 | Cc1n[nH]c2nc(-c3ccc(O)cc3)cc(C(=O)NCCN3CCC(c4ccccc4)CC3)c12 [Example 390, 6-(4-Hydroxy-phenyl)-3-methyl-1H-pyrazolo[3,4-b]pyridine-4-carboxylic acid [2-(4-phenyl-piperidin-1-yl)-ethyl]-amide] | 67
16 | Cc1n[nH]c2nc(-c3ccc(O)cc3)cc(C(=O)NCC(c3ccccc3)N3CCCC3)c12 (centres unmarked) [Example 391, 6-(4-Hydroxy-phenyl)-3-methyl-1H-pyrazolo[3,4-b]pyridine-4-carboxylic acid (2-phenyl-2-pyrroiidin-1-yl-ethyl)-amide] | 84

Row | Structure (SMILES) | inhibition at 1.14 µM [%]
17 | Cc1n[nH]c2nc(-c3ccc(O)cc3)cc(C(=O)NC3CCN(Cc4ccccc4)CC3)c12 [Example 392, 6-(4-Hydroxy-phenyl)-3-methyl-1H-pyrazolo[3,4-b]pyridine-4-carboxylic acid (1-benzyl-piperidin-4-yl)-amide] | 49
18 | Cc1n[nH]c2nc(-c3ccc(O)cc3)cc(C(=O)NCC(c3ccccc3)N3CCNCC3)c12 (centres unmarked) [Example 393, 6-(4-Hydroxy-phenyl)-3-methyl-1H-pyrazolo[3,4-b]pyridine-4-carboxylic acid (2-phenyl-2-piperazin-1-yl-ethyl)-amide] | 55
19 | Cc1n[nH]c2nc(-c3ccc(O)cc3)cc(C(=O)NCC(c3ccccc3)N3CCOCC3)c12 (centres unmarked) [Example 394, 6-(4-Hydroxy-phenyl)-3-methyl-1H-pyrazolo[3,4-b]pyridine-4-carboxylic acid (2-morpholin-4-yl-2-phenyl-ethyl)-amide] | 23
20 | Cc1n[nH]c2nc(-c3ccc(O)cc3)cc(C(=O)NCCC3CCNCC3)c12 [Example 395, 6-(4-Hydroxy-phenyl)-3-methyl-1H-pyrazolo[3,4-b]pyridine-4-carboxylic acid (2-piperidin-4-yl-ethyl)-amide] | 42
21 | Cc1n[nH]c2nc(-c3ccc(O)cc3)cc(C(=O)NC3CCC(N(C)C)CC3)c12 (centres unmarked) [Example 396, 6-(4-Hydroxy-phenyl)-3-methyl-1H-pyrazolo[3,4-b]pyridine-4-carboxylic acid (4-dimethylamino-cyclohexyl)-amide] | 39
22 | C[C@H]1CN(C(=O)c2cc(-c3ccc(O)cc3)nc3[nH]nc(C(F)(F)F)c23)CCN1 [Example 397, [6-(4-Hydroxy-phenyl)-3-trifluoromethyl-1H-pyrazolo[3,4-b]pyridin-4-yl]-((S)-3-methyl-piperazin-1-yl)-methanone] | 73
23 | O=C(N[C@@H]1CCCNC1)c1cc(-c2ccc(O)cc2)nc2[nH]nc(C(F)(F)F)c12 [Example 398, 6-(4-Hydroxy-phenyl)-3-trifluoromethyl-1H-pyrazolo[3,4-b]pyridine-4-carboxylic acid (R)-piperidin-3-ylamide] | 21
24 | NC1CCN(C(=O)c2cc(-c3ccc(O)cc3)nc3[nH]nc(C(F)(F)F)c23)CC1 [Example 399, (4-Amino-piperidin-1-yl)-[6-(4-hydroxy-phenyl)-3-trifluoromethyl-1H-pyrazolo[3,4-b]pyridin-4-yl]-methanone] | 60
25 | O=C(c1cc(-c2ccc(O)cc2)nc2[nH]nc(C(F)(F)F)c12)N1CC2CNCC2C1 (centres unmarked) [Example 400, (Hexahydro-pyrrolo[3,4-c]pyrrol-2-yl)-[6-(4-hydroxy-phenyl)-3-trifluoromethyl-1H-pyrazolo[3,4-b]pyridin-4-yl]-methanone] | 62
26 | C[C@@H]1CN(C(=O)c2cc(-c3ccc(O)cc3)nc3[nH]nc(C(F)(F)F)c23)CCN1 [Example 401, [6-(4-Hydroxy-phenyl)-3-trifluoromethyl-1H-pyrazolo[3,4-b]pyridin-4-yl]-((R)-3-methyl-piperazin-1-yl)-methanone] | 71
27 | O=C(NC1CNC1)c1cc(-c2ccc(O)cc2)nc2[nH]nc(C(F)(F)F)c12 [Example 402, 6-(4-Hydroxy-phenyl)-3-trifluoromethyl-1H-pyrazolo[3,4-b]pyridine-4-carboxylic acid azetidin-3-ylamide] | 41
28 | O=C(c1cc(-c2ccc(O)cc2)nc2[nH]nc(C(F)(F)F)c12)N1CC2(CCNCC2)C1 [Example 403, (2,7-Diaza-spiro[3.5]non-2-yl)-[6-(4-hydroxy-phenyl)-3-trifluoromethyl-1H-pyrazolo[3,4-b]pyridin-4-yl]-methanone] | 55
29 | N[C@H]1CCN(C(=O)c2cc(-c3ccc(O)cc3)nc3[nH]nc(C(F)(F)F)c23)C1 [Example 404, ((S)-3-Amino-pyrrolidin-1-yl)-[6-(4-hydroxy-phenyl)-3-trifluoromethyl-1H-pyrazolo[3,4-b]pyridin-4-yl]-methanone] | 31
30 | O=C(c1cc(-c2ccc(O)cc2)nc2[nH]nc(C(F)(F)F)c12)N1CCC2(CC1)CNC2 [Example 405, (2,7-Diaza-spiro[3.5]non-7-yl)-[6-(4-hydroxy-phenyl)-3-trifluoromethyl-1H-pyrazolo[3,4-b]pyridin-4-yl]-methanone] | 48
31 | CNC1CCN(C(=O)c2cc(-c3ccc(O)cc3)nc3[nH]nc(C(F)(F)F)c23)C1 (centres unmarked) [Example 406, [6-(4-Hydroxy-phenyl)-3-trifluoromethyl-1H-pyrazolo[3,4-b]pyridin-4-yl]-(3-methylamino-pyrrolidin-1-yl)-methanone] | 47
32 | O=C(c1cc(-c2ccc(O)cc2)nc2[nH]nc(C(F)(F)F)c12)N1CCC2(CCCNC2)C1 (centres unmarked) [Example 407, (2,7-Diaza-spiro[4.5]dec-2-yl)-[6-(4-hydroxy-phenyl)-3-trifluoromethyl-1H-pyrazolo[3,4-b]pyridin-4-yl]-methanone] | 20
